Source: patent US10238670B2, “9-aminomethyl minocycline compounds and methods of use thereof in urinary tract infection (UTI) treatment” (Paratek Pharmaceuticals, Inc., priority 2016, dated 2019)
In brackets after ≈: the same amount, converted by molar mass.

Legend:
Assay in all cases: In vitro MIC, 2010 surveillance isolates
E. faecium VNS = assay type: cell-based; conditions: N America
Enterobacter spp = assay type: cell-based
MR CoNS = assay type: cell-based, Coagulase-Negative Staphylococcus; conditions: for % R (resistance): Eucast breakpoints
A. baumanii = assay type: cell-based
MRSA = assay type: cell-based
E. cloacae CeftazR = assay type: cell-based
K. pneumoniae ESBL− = assay type: cell-based, Klebsiella pneumoniae
Acinetobacter spp = assay type: cell-based; conditions: for range of MICs (N <10, shown instead of MIC90): N=9
E. faecalis VNS = assay type: cell-based
MSSA = assay type: cell-based

## CN(C)c1cc(NC(=O)CNC(C)(C)C)c(O)c2c1C[C@H]1C[C@H]3[C@H](N(C)C)C(O)=C(C(N)=O)C(=O)[C@@]3(O)C(O)=C1C2=O [Tigecycline]
E. faecium VNS; CLSI breakpoints
  % R (resistance): 0%
E. faecium VNS; N=478
  MIC90: 0.25 µg/mL (≈ 0.427 µM)
Enterobacter spp; Asia/Pac, Eucast breakpoints
  % R (resistance): 3.8%
Enterobacter spp; Asia/Pac, N=52
  MIC90: 1 µg/mL (≈ 1.71 µM)
Enterobacter spp; Europe, Eucast breakpoints
  % R (resistance): 1.2%
Enterobacter spp; Europe, N=82
  MIC90: 1 µg/mL (≈ 1.71 µM)
Enterobacter spp; L. Amer, CLSI breakpoints
  % R (resistance): 0%
Enterobacter spp; L. Amer, N=42
  MIC90: 0.5 µg/mL (≈ 0.854 µM)
Enterobacter spp; N America, CLSI breakpoints
  % R (resistance): 0%
Enterobacter spp; N America, N=101
  MIC90: 0.5 µg/mL (≈ 0.854 µM)
MR CoNS; Asia/Pac
  % R (resistance): 0%
MR CoNS; Asia/Pac, N=77
  MIC90: 0.25 µg/mL (≈ 0.427 µM)
MR CoNS; Europe
  % R (resistance): 0%
MR CoNS; Europe, N=510
  MIC90: 0.25 µg/mL (≈ 0.427 µM)
MR CoNS; L. Amer, N=301
  MIC90: 0.25 µg/mL (≈ 0.427 µM)
MR CoNS; N America, N=461
  MIC90: 0.25 µg/mL (≈ 0.427 µM)
A. baumanii; Asia/Pac, N=275
  MIC90: 1 µg/mL (≈ 1.71 µM)
A. baumanii; Europe, N=145
  MIC90: 2 µg/mL (≈ 3.41 µM)
A. baumanii; L. Amer, N=275
  MIC90: 2 µg/mL (≈ 3.41 µM)
A. baumanii; N America, N=154
  MIC90: 2 µg/mL (≈ 3.41 µM)
MRSA; Asia/Pac, Eucast breakpoints
  % R (resistance): 0%
MRSA; Asia/Pac, N=428
  MIC90: 0.25 µg/mL (≈ 0.427 µM)
MRSA; Europe, Eucast breakpoints
  % R (resistance): 0%
MRSA; Europe, N=750
  MIC90: 0.25 µg/mL (≈ 0.427 µM)
MRSA; L. Amer, CLSI breakpoints
  % R (resistance): 0%
MRSA; L. Amer, N=506
  MIC90: 0.25 µg/mL (≈ 0.427 µM)
MRSA; N America, CLSI breakpoints
  % R (resistance): 0%
MRSA; N America, N=2508
  MIC90: 0.25 µg/mL (≈ 0.427 µM)
E. cloacae CeftazR; Asia/Pac, Eucast breakpoints
  % R (resistance): 1.6%
E. cloacae CeftazR; Asia/Pac, N=63
  MIC90: 0.5 µg/mL (≈ 0.854 µM)
E. cloacae CeftazR; Europe, Eucast breakpoints
  % R (resistance): 0%
E. cloacae CeftazR; Europe, N=72
  MIC90: 0.5 µg/mL (≈ 0.854 µM)
E. cloacae CeftazR; L. Amer, CLSI breakpoints
  % R (resistance): 0%
E. cloacae CeftazR; L. Amer, N=42
  MIC90: 1 µg/mL (≈ 1.71 µM)
E. cloacae CeftazR; N America, CLSI breakpoints
  % R (resistance): 0%
E. cloacae CeftazR; N America, N=77
  MIC90: 2 µg/mL (≈ 3.41 µM)
K. pneumoniae ESBL−; Asia/Pac, Eucast breakpoints
  % R (resistance): 1.1%
K. pneumoniae ESBL−; Asia/Pac, N=189
  MIC90: 0.5 µg/mL (≈ 0.854 µM)
K. pneumoniae ESBL−; Europe, Eucast breakpoints
  % R (resistance): 0.3%
K. pneumoniae ESBL−; Europe, N=361
  MIC90: 0.5 µg/mL (≈ 0.854 µM)
K. pneumoniae ESBL−; L. Amer, CLSI breakpoints
  % R (resistance): 0%
K. pneumoniae ESBL−; L. Amer, N=160
  MIC90: 0.5 µg/mL (≈ 0.854 µM)
K. pneumoniae ESBL−; N America, CLSI breakpoints
  % R (resistance): 0%
K. pneumoniae ESBL−; N America, N=671
  MIC90: 0.5 µg/mL (≈ 0.854 µM)
Acinetobacter spp; Asia/Pac
  range of MICs (N <10, shown instead of MIC90): ≤0.03-1
Acinetobacter spp; Europe, N=43
  MIC90: 2 µg/mL (≈ 3.41 µM)
Acinetobacter spp; L. Amer
  range of MICs (N <10, shown instead of MIC90): ≤0.03-2
Acinetobacter spp; N America, N=42
  MIC90: 0.5 µg/mL (≈ 0.854 µM)
E. faecalis VNS; Asia/Pac, N=1
  range of MICs (N <10, shown instead of MIC90): 0.25
E. faecalis VNS; Europe, Eucast breakpoints
  % R (resistance): 0%
E. faecalis VNS; Europe, N=8
  range of MICs (N <10, shown instead of MIC90): ≤0.03-0.25
E. faecalis VNS; L. Amer, CLSI breakpoints
  % R (resistance): 0%
E. faecalis VNS; L. Amer, N=7
  range of MICs (N <10, shown instead of MIC90): ≤0.03-0.06
E. faecalis VNS; N America, CLSI breakpoints
  % R (resistance): 0%
E. faecalis VNS; N America, N=38
  MIC90: 0.25 µg/mL (≈ 0.427 µM)
MSSA; Asia/Pac, Eucast breakpoints
  % R (resistance): 0%
MSSA; Asia/Pac, N=641
  MIC90: 0.25 µg/mL (≈ 0.427 µM)
MSSA; Europe, Eucast breakpoints
  % R (resistance): 0%
MSSA; Europe, N=2109
  MIC90: 0.25 µg/mL (≈ 0.427 µM)
MSSA; L. Amer, CLSI breakpoints
  % R (resistance): 0%
MSSA; L. Amer, N=590
  MIC90: 0.25 µg/mL (≈ 0.427 µM)
MSSA; N America, CLSI breakpoints
  % R (resistance): 0%
MSSA; N America, N=2373
  MIC90: 0.25 µg/mL (≈ 0.427 µM)
